From ChEMBL document CHEMBL2073769, “Direct evidence that saquinavir is transported by multidrug resistance-associated protein (MRP1) and canalicular multispecific organic anion transporter (MRP2)” (Antimicrob Agents Chemother, 2002)

How the values were obtained:
[1] = biological target: ATP-binding cassette sub-family C member 2 (Homo sapiens, UniProt Q92887); test: TP_TRANSPORTER: transepithelial transport (basal to apical) in MRP2-expressing MDCKII cells; assay type: functional, cell-based; conditions: dog, mdck-ii
Chain of ATP-binding cassette sub-family C member 2 (Q92887 whole entry): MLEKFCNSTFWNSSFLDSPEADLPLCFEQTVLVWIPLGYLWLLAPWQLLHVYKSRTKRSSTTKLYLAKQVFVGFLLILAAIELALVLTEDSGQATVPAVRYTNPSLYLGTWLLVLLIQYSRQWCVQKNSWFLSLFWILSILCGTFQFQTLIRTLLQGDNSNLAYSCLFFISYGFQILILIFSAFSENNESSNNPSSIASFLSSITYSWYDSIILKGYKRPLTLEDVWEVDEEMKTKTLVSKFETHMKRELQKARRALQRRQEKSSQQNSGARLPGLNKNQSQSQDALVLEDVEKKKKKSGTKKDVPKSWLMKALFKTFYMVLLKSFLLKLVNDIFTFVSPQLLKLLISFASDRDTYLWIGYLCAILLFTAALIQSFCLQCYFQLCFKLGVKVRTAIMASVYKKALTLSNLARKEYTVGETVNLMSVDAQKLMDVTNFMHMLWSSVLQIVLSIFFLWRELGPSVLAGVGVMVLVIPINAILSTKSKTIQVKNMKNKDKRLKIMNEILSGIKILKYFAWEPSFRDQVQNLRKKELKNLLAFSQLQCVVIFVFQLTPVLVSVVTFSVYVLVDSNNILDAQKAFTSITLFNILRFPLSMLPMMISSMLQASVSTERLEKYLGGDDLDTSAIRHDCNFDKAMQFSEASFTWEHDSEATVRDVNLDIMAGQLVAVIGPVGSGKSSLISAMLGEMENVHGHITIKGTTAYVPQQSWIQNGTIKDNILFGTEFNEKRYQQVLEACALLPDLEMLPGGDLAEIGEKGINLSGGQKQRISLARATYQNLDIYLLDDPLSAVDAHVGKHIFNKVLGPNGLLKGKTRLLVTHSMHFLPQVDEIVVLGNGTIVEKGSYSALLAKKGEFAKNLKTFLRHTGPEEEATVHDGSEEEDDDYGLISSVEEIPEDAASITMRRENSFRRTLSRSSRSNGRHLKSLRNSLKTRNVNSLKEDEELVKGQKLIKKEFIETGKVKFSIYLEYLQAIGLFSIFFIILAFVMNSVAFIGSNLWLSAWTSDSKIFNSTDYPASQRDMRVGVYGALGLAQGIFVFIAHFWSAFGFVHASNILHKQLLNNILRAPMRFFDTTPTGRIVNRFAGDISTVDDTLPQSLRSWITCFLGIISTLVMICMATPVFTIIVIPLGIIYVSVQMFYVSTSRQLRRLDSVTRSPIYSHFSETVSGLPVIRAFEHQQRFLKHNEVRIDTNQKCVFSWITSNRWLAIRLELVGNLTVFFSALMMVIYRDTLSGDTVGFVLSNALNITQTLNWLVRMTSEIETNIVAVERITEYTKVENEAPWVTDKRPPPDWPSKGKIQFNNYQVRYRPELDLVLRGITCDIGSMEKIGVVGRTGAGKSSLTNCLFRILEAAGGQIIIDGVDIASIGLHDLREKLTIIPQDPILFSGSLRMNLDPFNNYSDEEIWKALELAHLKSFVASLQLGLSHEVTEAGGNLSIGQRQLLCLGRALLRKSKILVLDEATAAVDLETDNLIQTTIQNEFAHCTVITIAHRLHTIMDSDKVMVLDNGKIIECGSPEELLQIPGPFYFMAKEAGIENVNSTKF

[2] = biological target: Multidrug resistance-associated protein 1 (Homo sapiens, UniProt P33527); test: TP_TRANSPORTER: transepithelial transport (basal to apical) in MRP1-expressing MDCKII cells; assay type: functional, cell-based; conditions: dog, mdck-ii
Chain of Multidrug resistance-associated protein 1 (P33527 whole entry): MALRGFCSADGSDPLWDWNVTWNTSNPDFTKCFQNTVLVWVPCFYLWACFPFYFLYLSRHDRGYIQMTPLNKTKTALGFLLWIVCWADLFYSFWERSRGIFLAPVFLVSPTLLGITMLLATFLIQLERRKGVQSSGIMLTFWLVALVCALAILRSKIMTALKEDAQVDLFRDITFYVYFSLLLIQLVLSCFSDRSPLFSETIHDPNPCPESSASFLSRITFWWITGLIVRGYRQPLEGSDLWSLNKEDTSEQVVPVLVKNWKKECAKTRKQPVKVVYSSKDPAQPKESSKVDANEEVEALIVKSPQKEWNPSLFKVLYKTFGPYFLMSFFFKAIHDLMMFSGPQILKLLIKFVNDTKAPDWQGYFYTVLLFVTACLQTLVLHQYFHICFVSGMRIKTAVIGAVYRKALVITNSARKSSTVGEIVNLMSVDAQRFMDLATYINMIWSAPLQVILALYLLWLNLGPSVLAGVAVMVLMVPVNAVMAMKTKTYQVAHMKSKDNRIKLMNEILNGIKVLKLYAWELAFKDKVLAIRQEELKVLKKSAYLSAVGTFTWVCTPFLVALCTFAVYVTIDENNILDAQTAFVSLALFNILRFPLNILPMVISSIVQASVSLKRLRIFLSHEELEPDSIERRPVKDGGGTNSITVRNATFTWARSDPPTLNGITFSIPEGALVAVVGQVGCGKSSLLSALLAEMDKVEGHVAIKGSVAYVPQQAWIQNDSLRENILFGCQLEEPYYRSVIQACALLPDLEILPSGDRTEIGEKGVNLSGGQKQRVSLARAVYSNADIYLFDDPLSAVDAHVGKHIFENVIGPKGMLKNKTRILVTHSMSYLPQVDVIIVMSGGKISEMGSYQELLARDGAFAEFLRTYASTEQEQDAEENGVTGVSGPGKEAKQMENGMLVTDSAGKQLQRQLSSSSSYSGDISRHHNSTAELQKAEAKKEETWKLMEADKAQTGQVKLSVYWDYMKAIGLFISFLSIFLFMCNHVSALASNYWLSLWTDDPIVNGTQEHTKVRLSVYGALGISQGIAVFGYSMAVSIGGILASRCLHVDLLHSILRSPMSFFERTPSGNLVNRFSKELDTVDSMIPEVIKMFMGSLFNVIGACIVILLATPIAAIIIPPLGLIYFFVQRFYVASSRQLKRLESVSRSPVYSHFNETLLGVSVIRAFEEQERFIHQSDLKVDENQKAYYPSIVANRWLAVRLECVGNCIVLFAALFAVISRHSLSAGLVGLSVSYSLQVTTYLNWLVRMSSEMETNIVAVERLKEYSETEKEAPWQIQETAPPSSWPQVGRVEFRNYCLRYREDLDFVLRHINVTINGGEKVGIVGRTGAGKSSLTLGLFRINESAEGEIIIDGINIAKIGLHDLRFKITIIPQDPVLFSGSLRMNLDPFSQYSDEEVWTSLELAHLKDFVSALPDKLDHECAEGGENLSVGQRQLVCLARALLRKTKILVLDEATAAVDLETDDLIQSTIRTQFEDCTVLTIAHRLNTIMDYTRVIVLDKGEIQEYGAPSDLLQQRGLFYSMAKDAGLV

CC(C)(C)NC(=O)[C@@H]1C[C@@H]2CCCC[C@@H]2CN1C[C@@H](O)[C@H](Cc1ccccc1)NC(=O)[C@H](CC(N)=O)NC(=O)c1ccc2ccccc2n1 [SAQUINAVIR]
Activity [1]: substrate [+]
Activity [2]: substrate [+]
